The nature of data set [1]: Solubility in organic solvents. The settings on record: methanol (MeOH), chloroform (CHCl3).
Data set [2] deals with MALME-3M. Kind of data set: Anticancer activity, reduced human cancer cell line panel (NCI method), Melanoma. It counts as cell-based. The settings on record: read-out: Log10 LC50 (converted). On the procedure: (§1) The anticancer activities of aclacinomycin X, 11-hydroxy aclacinomycin X and 11-hydroxy aclacinomycin A were determined by using a reduced human cancer cell line panel(supplier: National Cancer Institute, U.S.A.) in accordance with the method of National Cancer Institute, U.S.A. (Monks, A., et al., J. Natl. Cancer Inst., 83, 757-766(1991)), and the results are shown in Table I.

Data set [3] deals with SK-MEL-2. The data set is described as above. The settings on record: SK-MEL-2, read-out: Log10 LC50 (converted). It counts as cell-based. As to the method:
as §1

For data set [4], the system named is OVCAR-3. Kind of data set: Anticancer activity, reduced human cancer cell line panel (NCI method), Ovarian Cancer. It counts as cell-based. The settings on record: OVCAR-3, read-out: Log10 LC50 (converted). As to the method:
as §1

Data set [5] concerns UO-31. Put plainly: Anticancer activity, reduced human cancer cell line panel (NCI method), Renal Cancer. The settings on record: UO-31, read-out: Log10 LC50 (converted). The data set is classed as cell-based. On the procedure:
as §1

The test system of data set [6] is 786-0. Described as above. It counts as cell-based. The settings on record: 786-0, read-out: Log10 LC50 (converted). On the procedure:
as §1

Data set [7] concerns PC-3. Put plainly: Anticancer activity, reduced human cancer cell line panel (NCI method), Prostate Cancer. The data set is classed as cell-based. The settings on record: PC-3, read-out: Log10 LC50 (converted). On the procedure: as §1
The subject of data set [8] is DU-145. The description is as above. It counts as cell-based. Conditions: DU-145, read-out: Log10 LC50 (converted). As to the method:
as §1

Data set [9] concerns K-562. Put plainly: Anticancer activity, reduced human cancer cell line panel (NCI method), Leukemia. It counts as cell-based. On the procedure: as §1
The test system of data set [10] is HL-60 TB. The description is as above. Conditions: for LC50 (50% lethal concentration): Leukemia, HL-60 TB, read-out: Log10 LC50 (converted). It counts as cell-based. On the procedure: as §1
Data set [11] deals with U251. Kind of data set: Anticancer activity, reduced human cancer cell line panel (NCI method), CNS Cancer. The data set is classed as cell-based. On the procedure: as §1
For data set [12], the system named is SF-268. The description is as above. The settings on record: SF-268, read-out: Log10 LC50 (converted). The data set is classed as cell-based. On the procedure:
as §1

For data set [13], the system named is MDA-N. Kind of data set: Anticancer activity, reduced human cancer cell line panel (NCI method), Breast Cancer. It counts as cell-based. The settings on record: read-out: Log10 LC50 (converted). As to the method: as §1
Data set [14] has as its system MCF7. The data set is described as above. It counts as cell-based. Conditions: MCF7, read-out: Log10 LC50 (converted). On the procedure: as §1
Data set [15] has as its system human cancer cell lines. Put plainly: Anticancer / growth inhibiting activity against the human cancer cell line panel, overall. The data set is classed as cell-based. The settings on record: for growth inhibiting activities compared with aclacinomycin A: various human cancer cell lines. As to the method:
as §1

In data set [16] the test system is HT29. Kind of data set: Anticancer activity, reduced human cancer cell line panel (NCI method), Colon Cancer. It counts as cell-based. As to the method:
as §1

Data set [17] has as its system A-549. Kind of data set: Anticancer activity, reduced human cancer cell line panel (NCI method), Non-Small Cell Lung Cancer. It counts as cell-based. On the procedure:
as §1

Data set [18] relates to EKVX. The data set is described as above. It counts as cell-based. Conditions: read-out: Log10 LC50 (converted). As to the method:
as §1

In data set [19] the test system is SK-OV-3. Put plainly: Anticancer activity, reduced human cancer cell line panel (NCI method), Ovarian Cancer. The data set is classed as cell-based. Conditions: SK-OV-3, read-out: Log10 LC50 (converted). As to the method: as §1
In data set [20] the test system is HCC-2298. Kind of data set: Anticancer activity, reduced human cancer cell line panel (NCI method), Colon Cancer. It counts as cell-based. As to the method:
as §1

The mark [21] stands for this setting: K562, Leukemia, K-562, read-out: Log10 LC50 (converted).
[22] abbreviates: U-251, CNS Cancer, U251, read-out: Log10 LC50 (converted).
[23] abbreviates: HT-29, Colon Cancer, HT29, read-out: Log10 LC50 (converted).
[24] abbreviates: A549, Non-Small Cell Lung Cancer, A-549, read-out: Log10 LC50 (converted).

Where two headings read alike, the source gives them in different places.

For `CC[C@@]1(O)C[C@H](O[C@H]2C[C@H](N(C)C)[C@H](O[C@H]3C[C@@H]4OC5CC(=O)C(C)OC5O[C@@H]4[C@H](C)O3)[C@H](C)O2)c2c(O)c3c(c(O)c2[C@H]1C(=O)OC)C(=O)c1cccc(O)c1C3=O` (stereo partly drawn) [11-hydroxy aclacinomycin B], the “dissolves easily (solubility)” value in [1] is “dissolves easily in MeOH and CHC13”.

By LC50 is commonly meant the concentration lethal to half of the exposed cells or organisms. Consider `CC[C@@]1(O)C[C@H](O[C@H]2C[C@H](N(C)C)[C@H](O[C@H]3C[C@H](O)[C@H](O[C@@H]4O[C@@H](C)C(=O)C=C4N)[C@H](C)O3)[C@H](C)O2)c2c(O)c3c(c(O)c2[C@H]1C(=O)OC)C(=O)c1cccc(O)c1C3=O` [11-Hydroxy aclacinomycin X, 11-hydroxy aclacinomycin X], for which the LC50 (concentration killing 50% of cells) in data set [2] (Melanoma, MALME-3M) was 0.0537 µM. Besides, the CC50 in [3] (Melanoma) is less than 0.01 µM; in data set [4] (Ovarian Cancer) it was more than 100 µM; in [5] (Renal Cancer), 15.5 µM; in data set [9] (setting [21]), 7.59 µM; in [11] (setting [22]), more than 100 µM; in data set [12] (CNS Cancer), more than 100 µM. Moreover, the CC50 was more than 100 µM in data set [13] (Breast Cancer), 47.9 µM in data set [16] (setting [23]) and 0.977 µM in [18] (Non-Small Cell Lung Cancer). Moreover, the LC50 (50% lethal concentration) in data set [6] (Renal Cancer) was 4.57 µM; in data set [10] it was 0.234 µM; in [14] (Breast Cancer), 30.9 µM. In addition, the LC50 in [7] (Prostate Cancer) is 6.76 µM; in data set [8] (Prostate Cancer), 41.7 µM; in data set [17] (setting [24]) it was 21.4 µM. The “dissolves easily (solubility)” value in [1] is on record as “dissolves easily in MeOH or CHCl3”. In data set [15] (leukemia, melanoma and breast cancer cell lines), the “anticancer activities compared with aclacinomycin X” value is listed as “higher than aclacinomycin X”. Also, the “growth inhibiting activities compared with aclacinomycin A” value in data set [15] was “higher growth inhibiting activities than aclacinomycin A”.

`CC[C@@]1(O)C[C@H](O[C@H]2C[C@H](N(C)C)[C@H](O)[C@H](C)O2)c2c(O)c3c(c(O)c2[C@H]1C(=O)OC)C(=O)c1cccc(O)c1C3=O` [11-Hydroxy aclacinomycin T, 11-hydroxy aclacinomycin T]: the “dissolves easily (solubility)” value in data set [1] is on record as “dissolves easily in MeOH or CHC13”.

For the compound `CC[C@@]1(O)C[C@H](O[C@H]2C[C@H](N(C)C)[C@H](O[C@H]3C[C@H](O)[C@H](O[C@H]4CCC(=O)[C@H](C)O4)[C@H](C)O3)[C@H](C)O2)c2c(O)c3c(c(O)c2[C@H]1C(=O)OC)C(=O)c1cccc(O)c1C3=O` [11-Hydroxy aclacinomycin A, 11-hydroxy aclacinomycin A], the LC50 (concentration killing 50% of cells) in data set [2] (Malme-3M) was 0.0676 µM. Further, the CC50 was less than 0.01 µM in data set [3]; 38.9 µM in data set [19]; 72.4 µM in [4]; 19.1 µM in data set [5]; 1.78 µM in data set [9] (K562, read-out: Log10 LC50 (converted)); less than 0.01 µM in data set [10] (HL-60, read-out: Log10 LC50 (converted)). The CC50 is 56.2 µM in data set [11] (U-251, read-out: Log10 LC50 (converted)); 79.4 µM in data set [12]; 100 µM in [13]; 12.9 µM in data set [16] (HT-29, read-out: Log10 LC50 (converted)); less than 0.01 µM in data set [20] (read-out: Log10 LC50 (converted)); 0.257 µM in data set [18]. The values for the LC50 (50% lethal concentration) in [6] and in data set [14] were 8.32 µM and 25.1 µM, respectively. The LC50 in [7] is 14.5 µM; in data set [8], 24.5 µM; in data set [17] (A549, read-out: Log10 LC50 (converted)), 24.5 µM. Besides, in data set [1], the “dissolves easily (solubility)” value is “dissolves easily in MeOH or CHCL3”. The anticancer activity result in data set [15] (leukemia, colon cancer and melanoma cell lines) is recorded as “high anticancer activity”. The “growth inhibiting activities compared with aclacinomycin A” value in data set [15] is recorded as “higher growth inhibiting activities than aclacinomycin A”.

On to `CC[C@@]1(O)C[C@H](O[C@H]2C[C@H](N(C)C)[C@H](O[C@H]3C[C@H](O)[C@H](O[C@@H]4O[C@@H](C)C(=O)C=C4N)[C@H](C)O3)[C@H](C)O2)c2c(cc3c(c2O)C(=O)c2c(O)cccc2C3=O)[C@H]1C(=O)OC` [Aclacinomycin X, aclacinomycin X], for which, in [2] (Melanoma, MALME-3M), the LC50 (concentration killing 50% of cells) was 0.562 µM. The CC50 was 0.0525 µM in [3] (Melanoma); more than 100 µM in data set [19] (Ovarian Cancer); more than 100 µM in data set [4] (Ovarian Cancer); 26.3 µM in [5] (Renal Cancer); 60.3 µM in [9] (setting [21]); 18.2 µM in [11] (setting [22]). Moreover, the CC50 in data set [12] (CNS Cancer) is 11.2 µM; in data set [13] (Breast Cancer), more than 100 µM; in data set [16] (setting [23]), 30.9 µM; in data set [20] (Colon Cancer, HCC-2298, read-out: Log10 LC50 (converted)) it was 0.191 µM; in data set [18] (Non-Small Cell Lung Cancer), 18.6 µM. The results for the LC50 (50% lethal concentration) in [6] (Renal Cancer), in [10] and in [14] (Breast Cancer) were 18.2 µM, 30.9 µM and 43.7 µM, respectively. In addition, the LC50 is 8.32 µM in data set [7] (Prostate Cancer), 30.2 µM in data set [8] (Prostate Cancer) and 4.07 µM in data set [17] (setting [24]). Moreover, the “dissolves easily (solubility)” value in data set [1] was “dissolves easily in methanol or chloroform”. Moreover, the selective anticancer activities entry in [15] (colon cancer, melanoma and breast cancer cell lines) is “selective anticancer activities against colon cancer, melanoma and breast cancer cell lines”. Further, in [15], the “growth inhibiting activities compared with aclacinomycin A” value is listed as “higher growth inhibiting activities than aclacinomycin A”.

For the origin of these results see patent publication US5843735A, “Aklavinone C-11 hydroxylase, gene coding for same, expression vector therefor, and process for preparing hybrid antibiotics by using said vector” (priority 1995, dated 1998).
